Structures can show the parent of a compound that is named as a salt. Where two headings read alike, the source gives them in different places.
Key:
[1] = Determination of the 50% lethal dose (LD50) in mice; conditions: mouse, in vivo
Procedure: A. Determination of the 50% lethal dose (LD50) in mice
The derivatives studied were administered intraperitoneally and orally to groups made up of five male mice and five female mice, at a rate of 0.1 ml per ten grams of body weight.

rats = assay: Determination of the minimal lethal dose (MLD) in rats; format: in vivo, rat; conditions: male rats, doses 75 and 150 mg/kg
Procedure: B. Determination of the minimal lethal dose (MLD) in rats
The derivatives studied were administered intraperitoneally to two groups made up of 5 male rats.
The following doses were used: 75 and 150 mg/kg.

[2] = tested on: pain syndrome caused by phenylbenzoquinone (PBQ); assay: Peripheral analgesic activity (phenylbenzoquinone-induced abdominal twisting); format: in vivo; conditions: Mus musculus, ip
Procedure: F--Peripheral analgesic activity
A peritoneal pain is caused in mice by the intraperitoneal injection of phenylbenzoquinone (PBQ). The test assesses the decrease in the pain syndrome, characterized by an abdominal twisting movement, which is caused by injecting the test product thirty minutes before the administration of PBQ.
The 50% effective dose is calculated from the percentage decrease in the pain syndrome relative to the control animals.

[3] = tested on: contractions induced by histamine hydrochloride in isolated guinea-pig ileum; assay: Study on an isolated organ (guinea-pig ileum), antagonism of histamine contractions; conditions: 35° C., Tyrode's solution
Procedure: I--Study on an isolated organ (guinea-pig ileum)
This test assesses antagonism towards the contractions induced by histamine hydrochloride in isolated guinea-pig ileum kept at 35° C. in Tyrode's solution.

[4] = tested on: histamine-induced bronchospasm; assay: Bronchospasm by inhalation of a histamine solution; format: in vivo; conditions: Cavia porcellus, guinea-pig
Procedure: J--Bronchospasm by inhalation of a histamine solution
Guinea-pigs are placed in a closed chamber into which histamine is introduced as an aerosol, and only those which show very distinct signs of asphyxia within four minutes are selected.
The substance to be studied is administered to groups of guinea-pigs thirty minutes before a further period in the chamber in order to check the resistance to histamine. A guinea-pig is considered to be protected if it resists the histamine aerosol for ten minutes without showing signs of asphyxia.
A 50% effective dose is calculated from the results obtained.

[5] = tested on: lethal dose of histamine (histaminic shock); assay: Antihistaminic activity (protection from a lethal dose of histamine, histaminic shock); format: in vivo; conditions: Cavia porcellus, po; guinea-pig, p.o. by position of the head; histamine 1 mg/kg i.v.
Procedure: K--Antihistaminic activity
This test assesses the dose which protects fifty per cent of guinea-pigs from a lethal dose of histamine.
The product is administered thirty minutes before the intravenous injection of histamine hydrochloride (1 mg/kg).
The 50% effective dose is calculated from the results obtained.

anaphylactic shock = assay: Test for assessing the dose which protects 50% of guinea-pigs from anaphylactic shock; format: in vivo; conditions: Cavia porcellus, po; guinea-pig, p.o., 45 min before horse serum i.v.; read-out: ED50 protecting 50% of guinea-pigs from anaphylactic shock
Procedure: L--Test for assessing the dose which protects 50% of guinea-pigs from anaphylactic shock
This test was carried out according to the following protocol:
Intraperitoneal administration to guinea-pigs of 2 ml of 20% horse serum in physiological solution for three days: D1, D3 and D5.
Trigger action: on D15, oral administration of the test product 45 minutes before the intravenous injection of 0.5 ml of pure horse serum.

motor activity of mice = assay: Study of the spontaneous motility (motor activity, photoelectric actimeter); format: in vivo, mouse; conditions: i.p., comparative test, the number is the dose of the effect
Procedure: A--Study of the spontaneous motility
The motor activity of mice was determined with the aid of a Boissier and Simon photoelectric actimeter.
The mice are placed in groups of five in a box closed with a lid, through which two perpendicular light rays pass; the mice cut off these rays when they move.
These movements are measured by a counter, which is read after thirty minutes and one hour.

[6] = tested on: exploration behavior of mice; assay: Exploration behavior (automated hole-board); format: in vivo; conditions: Mus musculus, ip, comparative test
Excerpt: Thirty minutes after the intraperitoneal administration of the derivatives according to the invention, each mouse is placed on an automated hole-board for five minutes and the number of holes explored is noted every minute.
(§1) A 50% effective dose can be calculated from the results obtained.

[7] = tested on: muscle-relaxing action in mice; assay: Muscle-relaxing action (traction test); format: in vivo; conditions: Mus musculus, ip, comparative test
Excerpt: D--Muscle-relaxing action (traction test)
This test assesses the presence or absence of redressments in a mouse brought up to a horizontal wire with its front paws.
The number of mice which are unable to grip the wire with one of their back paws within five seconds is noted.
as §1

[8] = tested on: sleep induced by pentobarbital; assay: Interaction with pentobarbital; format: in vivo; conditions: Mus musculus, ip, read-out: Interaction with pentobarbital ED50
Excerpt: E--Interaction with pentobarbital
as §1

[9] = read-out: Peripheral analgesic activity (mouse) (ED50)
[10] = ip, i.p., first value under bronchospasm, read-out: Bronchospasm (guinea-pig) (ED50), i.p.
[11] = po, second value under bronchospasm, p.o. by position, read-out: Bronchospasm (guinea-pig) (ED50), second value

Compound	LD50 ([1]; ip, read-out: LD50 (i.p.)) [mg/kg]	LD50 ([1]; po, read-out: LD50 (p.o.)) [mg/kg]	MLD (i.p.) (rats) [mg/kg]	ED50 [2, 9] [mg/kg]	"In vitro" test (isolated ileum) (ED50) [3] [µg]	ED50 [4, 10] [mg/kg]	ED50 [4, 11] [mg/kg]	ED50 [5] [mg/kg]	ED50 (anaphylactic shock) [mg/kg]	Motor activity, significant decrease at (motor activity of mice) [mg/kg]	ED50 [6] [mg/kg]	ED50 [7] [mg/kg]	ED50 [8] [mg/kg]	ED50 ([2]; mice, i.p., comparative test, read-out: Peripheral analgesic activity ED50) [mg/kg]
CCOC(=O)CC1CCN(CCOC(c2ccccc2)c2ccccc2)CC1 [Example 3, maleate of ethyl 1-(benzhydryloxyethyl)piperidino-4-acetate]	160	585	75	1.9	8.0	0.097	0.223	0.061	0.829	–	–	–	–	–
CCOC(=O)C1CCN(CCOC(c2ccccc2)c2ccccc2)CC1 [Example 4, fumarate of 4-carbethoxy-1-benzhydryloxyethylpiperidine]	456	–	–	–	5	0.46	0.49	0.334	–	–	–	–	–	–
CCOC(=O)C=C1CCN(CCOC(c2ccccc2)c2ccccc2)CC1 [Example 2, ethyl 1-(benzhydryloxyethyl)piperidin-4-ylideneacetate]	300	–	–	1.9	> 10	0.65	0.21	0.25	–	–	–	–	–	–
CC(C)(C)c1ccc(C(O)CCCN2CCC(C(O)(c3ccccc3)c3ccccc3)CC2)cc1 (stereo not shown) [Terfenadine]	–	–	–	–	–	–	–	–	–	25	37	31	25	3.1

Source: US4983614A, “Benzhydryloxyethylpiperidine derivatives, process for their preparation and pharmaceutical compositions, in which they are present” (priority 1986, dated 1991)
